{
  "source": "PubChem BioAssay (NCI)",
  "assay_in_all_cases": "growth of human tumour cells (NCI), 48 h",
  "key": {"786-0 renal": {"test_system": "786-0 renal"}, "A498 renal": {"test_system": "A498 renal"}, "A549 NSCLC": {"test_system": "A549 NSCLC"}, "ACHN renal": {"test_system": "ACHN renal"}, "CAKI-1 renal": {"test_system": "CAKI-1 renal"}, "COLO 205 colon": {"test_system": "COLO 205 colon"}, "DLD-1 colon": {"test_system": "DLD-1 colon"}, "DMS 114 small cell lung": {"test_system": "DMS 114 small cell lung"}, "DMS 273 small cell lung": {"test_system": "DMS 273 small cell lung"}, "DU-145 prostate": {"test_system": "DU-145 prostate"}, "EKVX NSCLC": {"test_system": "EKVX NSCLC"}, "HCC-2998 colon": {"test_system": "HCC-2998 colon"}, "HCT-116 colon": {"test_system": "HCT-116 colon"}, "HCT-15 colon": {"test_system": "HCT-15 colon"}, "HL-60(TB) leukemia": {"test_system": "HL-60(TB) leukemia"}, "HOP-18 NSCLC": {"test_system": "HOP-18 NSCLC"}, "HOP-62 NSCLC": {"test_system": "HOP-62 NSCLC"}, "HOP-92 NSCLC": {"test_system": "HOP-92 NSCLC"}, "HS 578T breast": {"test_system": "HS 578T breast"}, "HT29 colon": {"test_system": "HT29 colon"}, "IGROV1 ovarian": {"test_system": "IGROV1 ovarian"}, "K-562 leukemia": {"test_system": "K-562 leukemia"}, "KM12 colon": {"test_system": "KM12 colon"}, "KM20L2 colon": {"test_system": "KM20L2 colon"}, "LOX IMVI melanoma": {"test_system": "LOX IMVI melanoma"}, "LXFL 529 NSCLC": {"test_system": "LXFL 529 NSCLC"}, "M14 melanoma": {"test_system": "M14 melanoma"}, "M19-MEL melanoma": {"test_system": "M19-MEL melanoma"}, "MALME-3M melanoma": {"test_system": "MALME-3M melanoma"}, "MCF7 breast": {"test_system": "MCF7 breast"}, "MDA-MB-231 breast": {"test_system": "MDA-MB-231 breast"}, "MDA-MB-435": {"test_system": "MDA-MB-435"}, "MDA-N": {"test_system": "MDA-N"}, "MOLT-4 leukemia": {"test_system": "MOLT-4 leukemia"}, "NCI-H226 lung": {"test_system": "NCI-H226 lung"}, "NCI-H23 lung": {"test_system": "NCI-H23 lung"}, "NCI-H460 lung": {"test_system": "NCI-H460 lung"}, "NCI-H522 lung": {"test_system": "NCI-H522 lung"}, "NCI/ADR-RES ovarian": {"test_system": "NCI/ADR-RES ovarian"}, "OVCAR-3 ovarian": {"test_system": "OVCAR-3 ovarian"}, "OVCAR-4 ovarian": {"test_system": "OVCAR-4 ovarian"}, "OVCAR-5 ovarian": {"test_system": "OVCAR-5 ovarian"}, "OVCAR-8 ovarian": {"test_system": "OVCAR-8 ovarian"}, "PC-3 prostate": {"test_system": "PC-3 prostate"}, "RXF 393 renal": {"test_system": "RXF 393 renal"}, "SF-268 CNS": {"test_system": "SF-268 CNS"}, "SF-295 CNS": {"test_system": "SF-295 CNS"}, "SF-539 CNS": {"test_system": "SF-539 CNS"}, "SK-MEL-2 melanoma": {"test_system": "SK-MEL-2 melanoma"}, "SK-MEL-28 melanoma": {"test_system": "SK-MEL-28 melanoma"}, "SK-MEL-5 melanoma": {"test_system": "SK-MEL-5 melanoma"}, "SK-OV-3 ovarian": {"test_system": "SK-OV-3 ovarian"}, "SN12C renal": {"test_system": "SN12C renal"}, "SNB-19 CNS": {"test_system": "SNB-19 CNS"}, "SNB-75 CNS": {"test_system": "SNB-75 CNS"}, "SR leukemia": {"test_system": "SR leukemia"}, "SW-620 colon": {"test_system": "SW-620 colon"}, "T-47D breast": {"test_system": "T-47D breast"}, "TK-10 renal": {"test_system": "TK-10 renal"}, "U251 CNS": {"test_system": "U251 CNS"}, "UACC-257 melanoma": {"test_system": "UACC-257 melanoma"}, "UACC-62 melanoma": {"test_system": "UACC-62 melanoma"}, "UO-31 renal": {"test_system": "UO-31 renal"}, "XF 498 CNS": {"test_system": "XF 498 CNS"}},
  "note": "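The compound was tested at five concentrations on cells cultured in 96-well plates, with a 48-hour exposure period. TGI is the concentration that stops growth completely.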",
  "data": [
    {"smiles": "O=Cc1cc2c(s1)C(=O)c1sccc1C2=O", "values": [
      {"measurement": "TGI", "setting": "786-0 renal", "result": 2.42, "unit": "µM"},
      {"measurement": "TGI", "setting": "A498 renal", "result": 2.66, "unit": "µM"},
      {"measurement": "TGI", "setting": "A549 NSCLC", "result": 1.56, "unit": "µM"},
      {"measurement": "TGI", "setting": "ACHN renal", "result": 1.77, "unit": "µM"},
      {"measurement": "TGI", "setting": "CAKI-1 renal", "result": 3.15, "unit": "µM"},
      {"measurement": "TGI", "setting": "COLO 205 colon", "result": 5.15, "unit": "µM"},
      {"measurement": "TGI", "setting": "DLD-1 colon", "result": 1.07, "unit": "µM"},
      {"measurement": "TGI", "setting": "DMS 114 small cell lung", "result": 0.372, "unit": "µM"},
      {"measurement": "TGI", "setting": "DMS 273 small cell lung", "result": 0.308, "unit": "µM"},
      {"measurement": "TGI", "setting": "DU-145 prostate", "result": 0.319, "unit": "µM"},
      {"measurement": "TGI", "setting": "EKVX NSCLC", "result": 3.18, "unit": "µM"},
      {"measurement": "TGI", "setting": "HCC-2998 colon", "result": 3.1, "unit": "µM"},
      {"measurement": "TGI", "setting": "HCT-116 colon", "result": 0.598, "unit": "µM"},
      {"measurement": "TGI", "setting": "HCT-15 colon", "result": 0.715, "unit": "µM"},
      {"measurement": "TGI", "setting": "HL-60(TB) leukemia", "result": 5.41, "unit": "µM"},
      {"measurement": "TGI", "setting": "HOP-18 NSCLC", "result": 0.322, "unit": "µM"},
      {"measurement": "TGI", "setting": "HOP-62 NSCLC", "result": 3.27, "unit": "µM"},
      {"measurement": "TGI", "setting": "HOP-92 NSCLC", "result": 2.82, "unit": "µM"},
      {"measurement": "TGI", "setting": "HS 578T breast", "result": 0.427, "unit": "µM"},
      {"measurement": "TGI", "setting": "HT29 colon", "result": 3.69, "unit": "µM"},
      {"measurement": "TGI", "setting": "IGROV1 ovarian", "result": 2.9, "unit": "µM"},
      {"measurement": "TGI", "setting": "K-562 leukemia", "result": "> 17", "unit": "µM"},
      {"measurement": "TGI", "setting": "KM12 colon", "result": 7.88, "unit": "µM"},
      {"measurement": "TGI", "setting": "KM20L2 colon", "result": 4.16, "unit": "µM"},
      {"measurement": "TGI", "setting": "LOX IMVI melanoma", "result": 0.155, "unit": "µM"},
      {"measurement": "TGI", "setting": "LXFL 529 NSCLC", "result": 0.38, "unit": "µM"},
      {"measurement": "TGI", "setting": "M14 melanoma", "result": 0.146, "unit": "µM"},
      {"measurement": "TGI", "setting": "M19-MEL melanoma", "result": 0.0709, "unit": "µM"},
      {"measurement": "TGI", "setting": "MALME-3M melanoma", "result": 0.664, "unit": "µM"},
      {"measurement": "TGI", "setting": "MCF7 breast", "result": 1.33, "unit": "µM"},
      {"measurement": "TGI", "setting": "MDA-MB-231 breast", "result": 2.2, "unit": "µM"},
      {"measurement": "TGI", "setting": "MDA-MB-435", "result": 0.0334, "unit": "µM"},
      {"measurement": "TGI", "setting": "MDA-N", "result": 0.0932, "unit": "µM"},
      {"measurement": "TGI", "setting": "MOLT-4 leukemia", "result": 9.49, "unit": "µM"},
      {"measurement": "TGI", "setting": "NCI-H226 lung", "result": 3.53, "unit": "µM"},
      {"measurement": "TGI", "setting": "NCI-H23 lung", "result": 0.441, "unit": "µM"},
      {"measurement": "TGI", "setting": "NCI-H460 lung", "result": 2.69, "unit": "µM"},
      {"measurement": "TGI", "setting": "NCI-H522 lung", "result": 2.02, "unit": "µM"},
      {"measurement": "TGI", "setting": "NCI/ADR-RES ovarian", "result": 0.409, "unit": "µM"},
      {"measurement": "TGI", "setting": "OVCAR-3 ovarian", "result": 0.463, "unit": "µM"},
      {"measurement": "TGI", "setting": "OVCAR-4 ovarian", "result": 0.599, "unit": "µM"},
      {"measurement": "TGI", "setting": "OVCAR-5 ovarian", "result": 2, "unit": "µM"},
      {"measurement": "TGI", "setting": "OVCAR-8 ovarian", "result": 0.771, "unit": "µM"},
      {"measurement": "TGI", "setting": "PC-3 prostate", "result": 6.29, "unit": "µM"},
      {"measurement": "TGI", "setting": "RXF 393 renal", "result": 0.663, "unit": "µM"},
      {"measurement": "TGI", "setting": "SF-268 CNS", "result": 0.526, "unit": "µM"},
      {"measurement": "TGI", "setting": "SF-295 CNS", "result": 0.314, "unit": "µM"},
      {"measurement": "TGI", "setting": "SF-539 CNS", "result": 0.399, "unit": "µM"},
      {"measurement": "TGI", "setting": "SK-MEL-2 melanoma", "result": 0.37, "unit": "µM"},
      {"measurement": "TGI", "setting": "SK-MEL-28 melanoma", "result": 0.334, "unit": "µM"},
      {"measurement": "TGI", "setting": "SK-MEL-5 melanoma", "result": 0.255, "unit": "µM"},
      {"measurement": "TGI", "setting": "SK-OV-3 ovarian", "result": 5.48, "unit": "µM"},
      {"measurement": "TGI", "setting": "SN12C renal", "result": 0.688, "unit": "µM"},
      {"measurement": "TGI", "setting": "SNB-19 CNS", "result": 0.668, "unit": "µM"},
      {"measurement": "TGI", "setting": "SNB-75 CNS", "result": 0.338, "unit": "µM"},
      {"measurement": "TGI", "setting": "SR leukemia", "result": 5.45, "unit": "µM"},
      {"measurement": "TGI", "setting": "SW-620 colon", "result": 0.592, "unit": "µM"},
      {"measurement": "TGI", "setting": "T-47D breast", "result": 4.38, "unit": "µM"},
      {"measurement": "TGI", "setting": "TK-10 renal", "result": 4.14, "unit": "µM"},
      {"measurement": "TGI", "setting": "U251 CNS", "result": 0.748, "unit": "µM"},
      {"measurement": "TGI", "setting": "UACC-257 melanoma", "result": 0.657, "unit": "µM"},
      {"measurement": "TGI", "setting": "UACC-62 melanoma", "result": 0.532, "unit": "µM"},
      {"measurement": "TGI", "setting": "UO-31 renal", "result": 0.861, "unit": "µM"},
      {"measurement": "TGI", "setting": "XF 498 CNS", "result": 2.54, "unit": "µM"}
    ]}
  ]
}
